{"source": "patent US7256202B2", "about": "“Composition and method for treatment of hepatic encephalopathy” (priority 2003, dated 2007)", "tested_on": "patient with hepatic encephalopathy", "experiment": "Case report: patient with cryptogenic cirrhosis and hepatic encephalopathy treated with lactulose, then PEG 3350/lactulose", "type": "in vivo, human", "description": "The patient is a person with cryptogenic cirrhosis, a type of cirrhosis which has unknown etiology. They have had extensive workups for chronic anemia in one of the major California hospitals and was placed on neomycin, Lasix, iron sulfate, lactulose, and Prevacid; they also were on a restricted protein diet to reduce ammonia production. They had intermittent episodes of hepatic encephalopathy during their hospitalization. The patient's hemoglobin slowly drops and they require transfusions periodically because of portal gastropathy. […] Although the therapeutic range is three to four bowel movements per day, it is very difficult for them to get to that range because of these effects.\nThe patient has required several hospitalizations for lethargy, declines in hemoglobin, and hepatic encephalopathy. They have intermittent episodes of abdominal discomfort and mild irritation of various small bowel loops.\nThe platelet count is in the range of 57,000. The lowest level of ammonia has been 30 micromoles/L and several levels have been 80 to 90 micromoles/L with the patient taking the lactulose.\nThe patient has had three hospitalizations for hepatic encephalopathy and anemia, mostly resulting from poor compliance. The patient's last hospitalization was July 22nd. Four months later, the patient presented us with hepatic encephalopathy and bedsores.\nThey were switched to 17 g MiraLax® (PEG 3350 powder) combined with 10 g of lactulose dissolved in water and given twice a day. The patient's ammonia level is now in the 70 to 75-range of micromoles/L and holding fairly steady on a maintenance dosage of this composition once per day.\nThey have achieved clinical and therapeutic levels of ammonia levels, and is oriented to time and place, with no clinical signs of hepatic encephalopathy on physical examination.", "key": {"[1]": {"conditions": "lactulose up to three to four times a day"}}}
{"smiles": "OC[C@H]1O[C@@H](O[C@@H]2[C@@H](CO)OC(O)(CO)[C@H]2O)[C@H](O)[C@@H](O)[C@H]1O", "note": "(mixture of isomers) [lactulose]", "values": [{"measurement": "bowel movements per day", "setting": "[1]", "value": "three to four to five"}, {"measurement": "side effects with the drug", "setting": "[1]", "value": "nausea, abdominal discomfort, and bloating sensation"}, {"measurement": "lowest level of ammonia", "setting": "patient taking the lactulose", "value": 30, "unit": "µmol/L"}]}
